From US12673052B2, “Combinations for the treatment of cancer” (Exelixis, Inc., priority 2020, dated 2026)

How the values were obtained:
CYP2B6 = assay: Cytochrome P450 induction (mRNA levels) in fresh primary human hepatocytes; format: in vitro ADME
CYP2C9 = assay: as above; format: in vitro ADME
[1] = Liver microsomal stability assay; format: in vitro ADME, human; settings: liver microsomes
Description: In the liver microsomal stability assay, CLint was 0.601 mL/min/g liver in mouse, 0.563 mL/min/g liver in rat, 0.315 mL/min/g liver in dog, 0.734 mL/min/g liver in monkey, and 0.639 mL/min/g liver in human. In the hepatocyte stability assay, Compound 1 CLint was 0.373 mL/min/g liver in mouse, 0.285 mL/min/g liver in rat, 1.08 mL/min/g liver in dog, 0.533 mL/min/g liver in monkey, and 0.317 mL/min/g liver in human.

CYP1A2 = assay: CYP/UGT substrate specificity (recombinant Supersomes, chemical inhibitors in human liver microsomes); format: in vitro ADME
Description: (§1) Plasma PK of Compound 1 was characterized in rats and beagle dogs. Toxicokinetic (TK) evaluations of oral Compound 1 were evaluated in repeat-dose studies in rats and dogs. Plasma protein binding was determined in mouse, rat, dog, monkey, and human plasma in vitro. Biotransformation and metabolite profiling of Compound 1 were investigated in vitro using mouse, rat, dog, monkey, and human liver microsomal fractions and hepatocytes and in vivo in rats and dogs. P-glycoprotein (P-gp) and breast cancer resistance protein (BCRP) transporter interaction studies, in vitro experiments evaluating cytochrome P450 (CYP) induction and inhibition by Compound 1, and CYP and glucuronosyltransferase (UGT) substrate specificity studies of Compound 1 were also performed.

CYP2C19 = assay: as above; format: in vitro ADME
Description: as §1

CYP2C8 = assay: as above; format: in vitro ADME
Description: as §1

UGT1A4 = biological target: T1, UGT1A4 (Homo sapiens, UniProt P22310); assay: as above; format: in vitro ADME
T1 construct: purchased; host or cells: recombinant Supersomes; human liver microsomes
Description: as §1

UGT1A9 = biological target: T2, UGT1A9 (Homo sapiens, UniProt O60656); assay: as above; format: in vitro ADME
T2 construct: purchased; host or cells: recombinant Supersomes; human liver microsomes
Description: as §1

UGT2B7 = biological target: T3, UGT2B7 (Homo sapiens, UniProt P16662); assay: as above; format: in vitro ADME
T3 construct: purchased; host or cells: recombinant Supersomes; human liver microsomes
Description: as §1

[2] = Repeat-dose toxicity studies (7-day range-finding, definitive 28-day, 14-day recovery); format: in vivo, dogs
Description: The nonclinical toxicity of Compound 1 was characterized in dose range-finding 7-day and definitive 28-day repeat-dose studies in rats and dogs, and in in vitro bacterial and mammalian genotoxicity bioassays. Compound 1 was also evaluated in definitive neurobehavioral, respiratory and cardiovascular safety pharmacology studies.

[3] = Projection of human PK and steady-state exposure based on one species (rat)
Description: The mean plasma t1/2, z values were approximately 9 hours in rats and 4 hours in dogs. Interspecies scaling based on body weight to predict PK parameters in humans could not be performed because dogs (larger species) cleared Compound 1 faster than rats (smaller species). Therefore, the human PK was projected based on one species (rat). […] This apparent clearance value (CL/F) was used to predict steady-state exposure (AUC and average plasma concentration [Cavg]) in humans for the proposed first-in-human (FIH) starting dose for Study Compound 1-001.
The steady-state exposure of Compound 1 in humans for the proposed clinical starting dose of 10 mg daily was projected. At this dose, Compound 1 is projected to yield exposures 54-fold lower than those at the highest non-severely toxic dose (HNSTD) in rats (10 mg/kg qd), the highest dose tested in the GLP 4-week toxicity study. […] Compound 1-related findings at the 10 mg/kg/day dose included bile duct inflammation, hyperplasia and individual hepatocyte necrosis (generally minimal-mild) which were fully reversible following 14 days recovery, as were correlative <2-fold aspartate aminotransferase (AST) and <5-fold alanine aminotransferase (ALT) increases.

MET = MET (Homo sapiens, UniProt P08581); assay: In vivo target modulation: MET phosphorylation by Western blot in NCI-H441 xenografts; design: endogenous in cells; host or cells: NCI-H441 human tumour xenografts in athymic nude mice; species or system athymic nude mice; settings: for Compound 1 Plasma Exposure: qd × 14, 4 hours after last dose on Day 14
Description: Three human tumor cell lines, NCI-H441, MDA-MB-231, and SNU-5, were selected for use in tumor xenograft studies using athymic nude, NSG and CB.17 SCID mice, respectively. Pharmacodynamic modulation of MET phosphorylation was also measured in the NCI-H441 and SNU-5 xenografts. Tumor-bearing mice were orally dosed once-daily for 14 days (qd×14), and the tumors were resected and processed for MET phosphorylation analysis by Western blot. […]

AXL = AXL (Homo sapiens, UniProt P30530); assay: RTK autophosphorylation ELISA, A-172 cells stimulated with Gas6; format: cell-based; design: cell lines (PC-3, HUVEC, and A-172) stimulated with ligands to their respective receptors to induce autophosphorylation (MET, VEGFR2, and AXL); endogenous in cells; host or cells: A-172; settings: ligand Gas6, read-out: Cellular IC50
Description: The activity of Compound 1 was evaluated in cell-based assays that assessed the mechanistic effects of the compound in tumor and normal cells. Consistent with the biochemical data, Compound 1 is a potent inhibitor of cellular RTKs as assessed by analysis of receptor autophosphorylation as measured by enzyme-linked immunosorbent assay. Assays were performed using cell lines (PC-3, HUVEC, and A-172) stimulated with ligands to their respective receptors to induce autophosphorylation (MET, VEGFR2, and AXL) or a cell line (293A) transfected with an expression vector encoding the receptor of interest (MER). Inhibition of endogenous phosphorylated MET by Compound 1 in Hs 746T gastric carcinoma cells was also investigated due to the presence of the skip-splice mutation of exon 14 in the MET gene. This MET exon 14 alteration leads to increased MET stability and oncogenic activation, including constitutive MET phosphorylation. Also this mutation is known to occur in 3% of lung adenocarcinoma patients and to be sensitive to MET-targeted therapies (Frampton et al 2015).

[4] = human, fresh primary human hepatocytes, mRNA induction, read-out: half-maximal effective concentration (EC50)
[5] = NCI-H441, mouse, po, read-out: p-MET Inhibition %

Chain of MET (P08581 25-1390): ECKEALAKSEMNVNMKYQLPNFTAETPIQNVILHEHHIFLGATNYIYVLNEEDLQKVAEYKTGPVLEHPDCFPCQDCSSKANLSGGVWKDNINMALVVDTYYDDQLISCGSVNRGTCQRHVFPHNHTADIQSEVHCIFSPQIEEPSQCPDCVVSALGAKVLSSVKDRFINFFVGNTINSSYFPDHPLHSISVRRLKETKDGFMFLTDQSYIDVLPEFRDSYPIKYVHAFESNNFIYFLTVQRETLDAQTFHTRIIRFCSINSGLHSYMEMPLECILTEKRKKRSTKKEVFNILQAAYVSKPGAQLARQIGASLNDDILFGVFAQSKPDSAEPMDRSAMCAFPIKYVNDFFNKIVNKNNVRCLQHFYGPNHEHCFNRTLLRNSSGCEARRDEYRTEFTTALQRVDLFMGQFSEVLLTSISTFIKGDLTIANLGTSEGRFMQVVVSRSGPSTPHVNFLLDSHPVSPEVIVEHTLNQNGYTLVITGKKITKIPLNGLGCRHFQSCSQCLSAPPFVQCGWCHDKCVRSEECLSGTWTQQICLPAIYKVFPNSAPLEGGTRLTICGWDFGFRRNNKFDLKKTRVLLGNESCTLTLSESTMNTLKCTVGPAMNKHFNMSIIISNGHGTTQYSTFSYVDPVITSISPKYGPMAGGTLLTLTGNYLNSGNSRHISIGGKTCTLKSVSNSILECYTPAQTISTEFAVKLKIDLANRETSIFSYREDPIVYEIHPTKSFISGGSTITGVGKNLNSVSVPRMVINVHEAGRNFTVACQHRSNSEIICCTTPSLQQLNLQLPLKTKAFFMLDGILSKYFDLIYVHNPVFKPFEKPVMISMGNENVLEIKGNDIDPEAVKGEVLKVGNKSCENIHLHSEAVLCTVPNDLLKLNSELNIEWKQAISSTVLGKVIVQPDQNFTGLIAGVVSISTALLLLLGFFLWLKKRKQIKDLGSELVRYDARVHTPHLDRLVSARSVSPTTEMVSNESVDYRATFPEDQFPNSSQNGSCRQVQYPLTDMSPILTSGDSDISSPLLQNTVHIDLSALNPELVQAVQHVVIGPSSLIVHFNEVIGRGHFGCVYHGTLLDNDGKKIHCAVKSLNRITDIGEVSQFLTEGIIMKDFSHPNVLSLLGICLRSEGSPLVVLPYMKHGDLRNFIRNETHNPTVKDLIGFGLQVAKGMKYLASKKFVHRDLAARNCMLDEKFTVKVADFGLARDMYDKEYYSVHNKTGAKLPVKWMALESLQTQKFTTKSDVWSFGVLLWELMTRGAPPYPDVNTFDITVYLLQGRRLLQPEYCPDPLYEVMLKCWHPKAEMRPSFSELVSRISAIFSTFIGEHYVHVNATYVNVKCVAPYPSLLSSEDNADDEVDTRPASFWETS
T1 sequence (P22310 29-534): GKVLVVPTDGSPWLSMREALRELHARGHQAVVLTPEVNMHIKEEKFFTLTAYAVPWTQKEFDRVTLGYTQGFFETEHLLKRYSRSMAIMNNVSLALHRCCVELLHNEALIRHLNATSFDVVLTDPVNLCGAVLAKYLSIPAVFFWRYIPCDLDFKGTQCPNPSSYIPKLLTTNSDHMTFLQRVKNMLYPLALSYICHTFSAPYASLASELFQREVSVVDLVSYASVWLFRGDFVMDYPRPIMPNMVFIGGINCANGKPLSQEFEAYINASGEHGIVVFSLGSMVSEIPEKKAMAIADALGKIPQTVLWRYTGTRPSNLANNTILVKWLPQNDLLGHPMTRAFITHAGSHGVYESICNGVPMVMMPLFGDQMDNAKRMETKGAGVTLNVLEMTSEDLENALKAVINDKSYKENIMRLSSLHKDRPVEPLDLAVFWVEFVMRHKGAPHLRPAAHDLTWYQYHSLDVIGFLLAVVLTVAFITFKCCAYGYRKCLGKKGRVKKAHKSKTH
Chain of AXL (P30530 26-894): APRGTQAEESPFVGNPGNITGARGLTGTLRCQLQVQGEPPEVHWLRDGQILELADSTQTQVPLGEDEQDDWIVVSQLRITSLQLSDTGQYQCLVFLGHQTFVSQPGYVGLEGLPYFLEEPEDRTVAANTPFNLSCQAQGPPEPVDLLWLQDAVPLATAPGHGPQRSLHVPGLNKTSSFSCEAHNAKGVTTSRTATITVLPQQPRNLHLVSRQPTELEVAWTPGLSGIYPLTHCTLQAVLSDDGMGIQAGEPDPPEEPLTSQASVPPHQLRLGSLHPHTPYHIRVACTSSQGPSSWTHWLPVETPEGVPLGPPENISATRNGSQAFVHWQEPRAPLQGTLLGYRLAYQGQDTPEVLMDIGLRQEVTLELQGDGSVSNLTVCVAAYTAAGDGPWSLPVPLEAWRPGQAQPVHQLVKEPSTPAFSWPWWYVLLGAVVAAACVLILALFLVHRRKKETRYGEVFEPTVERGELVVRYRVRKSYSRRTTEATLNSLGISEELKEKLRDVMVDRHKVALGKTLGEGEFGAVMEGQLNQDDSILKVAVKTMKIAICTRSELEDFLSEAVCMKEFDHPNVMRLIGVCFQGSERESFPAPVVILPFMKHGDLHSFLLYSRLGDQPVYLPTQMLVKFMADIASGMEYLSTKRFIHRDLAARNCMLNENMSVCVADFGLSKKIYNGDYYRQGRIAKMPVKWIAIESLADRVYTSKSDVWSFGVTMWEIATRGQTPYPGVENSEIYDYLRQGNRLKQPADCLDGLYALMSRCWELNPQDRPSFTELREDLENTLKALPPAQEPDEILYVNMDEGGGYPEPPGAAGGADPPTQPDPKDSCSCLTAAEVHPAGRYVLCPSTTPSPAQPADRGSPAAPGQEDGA
T3 sequence (P16662 24-529): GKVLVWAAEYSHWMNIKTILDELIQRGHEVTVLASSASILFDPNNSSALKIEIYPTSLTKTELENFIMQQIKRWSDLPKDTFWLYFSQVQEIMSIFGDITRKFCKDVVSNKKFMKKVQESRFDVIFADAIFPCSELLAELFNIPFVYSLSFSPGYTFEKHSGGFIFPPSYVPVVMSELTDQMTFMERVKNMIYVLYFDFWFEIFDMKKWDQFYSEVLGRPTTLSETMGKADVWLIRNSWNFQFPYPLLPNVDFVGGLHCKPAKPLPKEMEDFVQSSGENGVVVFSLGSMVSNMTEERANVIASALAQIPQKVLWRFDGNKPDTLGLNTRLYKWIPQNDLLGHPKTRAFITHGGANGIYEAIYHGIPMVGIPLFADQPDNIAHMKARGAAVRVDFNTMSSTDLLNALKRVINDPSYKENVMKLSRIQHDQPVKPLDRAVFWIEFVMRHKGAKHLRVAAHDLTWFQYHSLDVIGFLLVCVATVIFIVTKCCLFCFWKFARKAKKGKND
T2 sequence (O60656 26-530): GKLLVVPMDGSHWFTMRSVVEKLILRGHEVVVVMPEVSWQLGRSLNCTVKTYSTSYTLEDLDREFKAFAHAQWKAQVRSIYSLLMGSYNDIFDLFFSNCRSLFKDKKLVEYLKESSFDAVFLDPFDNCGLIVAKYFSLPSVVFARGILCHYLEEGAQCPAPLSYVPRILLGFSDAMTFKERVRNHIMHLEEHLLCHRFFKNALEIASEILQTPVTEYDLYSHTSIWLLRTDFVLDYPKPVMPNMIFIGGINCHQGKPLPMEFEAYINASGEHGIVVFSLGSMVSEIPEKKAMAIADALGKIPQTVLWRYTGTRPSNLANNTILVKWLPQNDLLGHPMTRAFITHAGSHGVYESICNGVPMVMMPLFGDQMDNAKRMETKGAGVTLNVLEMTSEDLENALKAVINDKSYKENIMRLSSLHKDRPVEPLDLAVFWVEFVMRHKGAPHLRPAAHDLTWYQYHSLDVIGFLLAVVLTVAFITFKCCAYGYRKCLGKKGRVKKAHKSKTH

CNC(=O)c1cc2c(Oc3ccc(NC(=O)C4(C(=O)Nc5ccc(F)cc5)CC4)cc3)ccnc2cc1OC [Compound 1, 1-N′-(4-Fluorophenvl)-1-N-[4-[7-methoxy-6-(methylcarbamovl)quinolin-4-yl]oxyphenyl]cyclopropane-1,1-dicarboxamide]
EC50 (CYP2B6; [4]): 5410 nM | maximal induction effect (Emax) (CYP2B6; mRNA, 0.1-100 μM): 17 fold | EC50 (CYP2C9; [4]): 1710 nM | maximal induction effect (Emax) (CYP2C9; mRNA, 0.1-100 μM): 5 fold | CLint [1]: 0.639 mL/min/g liver | substrate of enzyme (CYP1A2): not to be a substrate | substrate of enzyme (CYP2C19): not to be a substrate | role in the metabolism of Compound 1 (CYP2C8): only a minor role | role in Compound 1 metabolism (UGT1A4): may play a minor role | substrate of enzyme (UGT1A9): not to be a substrate | substrate of enzyme (UGT2B7): not to be a substrate | reversibility of adverse findings ([2]; 14-day non-treatment recovery period): partially or completely reversible | Cmax at 28 days ([2]; both sexes, dog, plasma, oral, 18 mg/kg/day, daily dosing for 28 days): ~7 µM | ophthalmic findings ([2]; daily for 4 weeks): No adverse ophthalmic findings | QTc interval ([2]; male and female dogs, daily dosing 28 days, 18 mg/kg/day): no QTc interval prolongation | cholesterol ([2]; repeat-dose): increased cholesterol | dose-related clinical signs ([2]; repeat-dose): hypoactivity, vomitus, and fecal changes | reticulocytes ([2]; repeat-dose): transient decreases in reticulocytes | nasal turbinate histologic findings ([2]; terminal sacrifice males >6 mg/kg/day, considered non-adverse): increased incidences and severities of mixed cell inflammation and osteolysis/osteogenesis | projected apparent CL (CL/F) after oral administration in human ([3]; assuming rat CL=23.4 mL/hr/kg and F=70%): 0.557 mL/min/kg | projected apparent CL (CL/F) after oral administration in human ([3]; for a 70-kg human): 2338 mL/h | projected human exposure lower than exposure at HNSTD in rats ([3]; proposed clinical starting dose of 10 mg daily vs 10 mg/kg qd in rats): 54 fold | Compound 1 Plasma Exposure (MET; 3 mg/kg): 2.44 µM | Compound 1 Plasma Exposure (MET; 10 mg/kg): 9.71 µM | inhibition at 3 mg/kg (MET; [5]): 60% | inhibition at 10 mg/kg (MET; [5]): 82% | IC50 (AXL): 3.4 nM
